Reference: PubChem BioAssay (NCI)
Where “and” joins values, the source holds several entries; their conditions need not be identical. Equal entries are not always repeated.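 Grown in 96-well plates, cells were treated for 48 hours with each compound at five concentrations. Insufficient inhibition: endpoint recorded as highest concentration tested. GI50 = concentration required for 50% inhibition of growth. TGI: concentration producing complete growth inhibition.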

Assays:
Test in all cases: NCI tumour cell line growth inhibition, 48 h
ACHN renal = system: ACHN renal
BT-549 breast = system: BT-549 breast
CCRF-CEM leukemia = system: CCRF-CEM leukemia
EKVX NSCLC = system: EKVX NSCLC
KM12 colon = system: KM12 colon
LOX IMVI melanoma = system: LOX IMVI melanoma
SF-539 CNS = system: SF-539 CNS
SNB-75 CNS = system: SNB-75 CNS
T-47D breast = system: T-47D breast
TK-10 renal = system: TK-10 renal

Structure (SMILES)	GI50 (ACHN renal) [µM]	TGI (ACHN renal)	GI50 (BT-549 breast) [µM]	TGI (BT-549 breast) [µM]	GI50 (CCRF-CEM leukemia) [µM]	TGI (CCRF-CEM leukemia) [µM]	GI50 (EKVX NSCLC) [µM]	TGI (EKVX NSCLC)	GI50 (KM12 colon) [µM]	TGI (KM12 colon)	GI50 (LOX IMVI melanoma)	TGI (LOX IMVI melanoma)	GI50 (SF-539 CNS) [µM]	TGI (SF-539 CNS)	GI50 (SNB-75 CNS) [µM]	TGI (SNB-75 CNS)	GI50 (T-47D breast) [µM]	TGI (T-47D breast) [µM]	GI50 (TK-10 renal) [µM]	TGI (TK-10 renal)
Cc1ncsc1-c1ccc(CNC(=O)[C@@H]2C[C@@H](O)CN2C(=O)[C@@H](NC(=O)C2(C#N)CC2)C(C)(C)C)cc1	> 100	> 100 µM	> 100	> 100	> 100	> 100	35.2	> 100 µM	> 100	> 100 µM	> 100 µM	> 100 µM	> 100	> 100 µM	33.7	> 100 µM	> 100	> 100	> 100	> 100 µM
O=C(/C(=C/c1ccc([N+](=O)[O-])cc1)SCc1ccc(F)cc1)c1ccc(Cl)cc1	1.96	4.1 µM	3.38	16.4	3.17	> 100	11.5	38.6 µM	2.81	8.63 µM	1.73 µM	3.27 µM	15.5	33.2 µM	73	> 100 µM	7	26.2	20.1	54.8 µM
S=C(N/N=C(/c1ccccc1)c1ccccn1)N1CCCCCC1	0.00216	1.58 µM and 1.47 µM		2.07	< 0.001		0.641	1.94 µM and 0.365 µM	0.0105	1.57 µM and 1.5 µM	0.00892 µM and 0.0583 µM	1.79 µM and 1.27 µM	0.329	1.43 µM and 1.63 µM	0.66	2.04 µM and 1.95 µM	< 0.001			1.52 µM and 1.86 µM
CNC(=O)Oc1cc(C)c(/C=C/c2cncc(C(=O)NC)c2)c(C)c1	> 25	> 25 µM	> 25	> 25	24.8	> 25	> 25	> 25 µM	> 25	> 25 µM	15.9 µM	> 25 µM	> 21.6	> 25 µM	9.45	24.6 µM	> 25	> 25	> 25	> 25 µM
O=C(NN=C1CCCCC1)c1[nH]c2ccc(F)cc2c1-c1ccccc1	42.6	> 100 µM	57.4	> 100	17.7	> 100	63.2	> 100 µM	44.7	> 100 µM	25.2 µM	> 100 µM	52	> 100 µM	19.6	58.1 µM	46.8	> 100	91	> 100 µM
C[C@H](CCCNCCCNCCCN)[C@H]1CC[C@H]2[C@@H]3[C@H](OCCCN)C[C@H]4C[C@H](OCCCN)CC[C@]4(C)[C@H]3C[C@H](OCCCN)[C@]12C	1.41	27.7 µM	0.923	5.1	3.82	31.1	5.43	> 43.9 µM	0.355	6.05 µM	0.888 µM	9.41 µM	0.98	3.46 µM	8.49	> 83.9 µM	2.59	> 37	2.18	51.6 µM
S=c1nc(Cl)cc2[nH]c(Cl)cn12		> 100 µM		> 100		6.04		7.41 µM		33.9 µM		> 100 µM		5.69 µM		13.8 µM		> 100		> 100 µM
N#CS.N=C=S.N=C=S.[Cu+2].[NH2-].[NH2-].[NH2-].[NH2-].c1ccc2ncccc2c1	> 100	> 100 µM	> 100	> 100	24.3	57.5	47.4	> 100 µM	31.5	> 100 µM	43.3 µM	> 100 µM	> 100	> 100 µM	21	49.9 µM	> 100	> 100	90	> 100 µM
